Data taken from ChEMBL document CHEMBL3400010, “Cytotoxic and antioxidant constituents from the leaves of Psidium guajava” (Bioorg Med Chem Lett, 2015).
Values after ≈ are worked out from the molar mass of the structure shown.

Legend:
HeLa = experiment: Cytotoxicity against human HeLa cells by MTT assay; format: functional, cell-based
[1] = Antioxidant activity assessed as DPPH radical scavenging activity after 30 mins by microplate reader based assay; format: physicochemical
[2] = Antioxidant activity assessed as FRAP values at 25 ug/ml incubated at 37 degC for 5 mins by FeSO4.7H2O calibration curve based method; format: physicochemical
[3] = Antioxidant activity assessed as FRAP values at 100 ug/ml incubated at 37 degC for 5 mins by FeSO4.7H2O calibration curve based method; format: physicochemical
[4] = Antioxidant activity assessed as FRAP values at 50 ug/ml incubated at 37 degC for 5 mins by FeSO4.7H2O calibration curve based method; format: physicochemical
[5] = Cytotoxicity against human SGC7901 cells by MTT assay; format: functional, cell-based; conditions: SGC-7901
[6] = Antioxidant activity assessed as ABTS radical scavenging activity after 15 mins; format: physicochemical
[7] = Antioxidant activity assessed as FRAP values at 12.5 ug/ml incubated at 37 degC for 5 mins by FeSO4.7H2O calibration curve based method; format: physicochemical
A549 = experiment: Cytotoxicity against human A549 cells by MTT assay; format: functional, cell-based

SMILES | IC50 [1] [µg/mL] | Activity [2] [µmol/L] | Activity [3] [µmol/L] | Activity [4] [µmol/L] | IC50 [6] [µg/mL] | Activity [7] [µmol/L] | IC50 (HeLa) [µg/mL] | IC50 [5] [µg/mL] | IC50 (A549) [µg/mL]
O=c1c(O[C@@H]2O[C@H](CO)[C@H](O)[C@H](O)[C@H]2O)c(-c2ccc(O)c(O)c2)oc2cc(O)cc(O)c12 [HYPEROSIDE] | 27.03 (≈ 58.2 µM) | 155.89 | 329.68 | 287.94 | 10.57 (≈ 22.8 µM) | 68.06 | > 10 | > 10 | > 10
O=c1c(O)c(-c2ccc(O)c(O)c2)oc2cc(O)cc(O)c12 [QUERCETIN] | 11 (≈ 36.4 µM) | 359.18 | 401.27 | 379.4 | 4.4 (≈ 14.6 µM) | 333.26 | 8.26 (≈ 27.3 µM) | 7.88 (≈ 26.1 µM) | > 10
O=C1O[C@H]([C@@H](O)CO)C(O)=C1O [ASCORBIC ACID] | 16.3 (≈ 92.5 µM) | 292.1 | 442.43 | 396.76 | 8.53 (≈ 48.4 µM) | 149.97 |  |  | 
Cc1c(O)c(C)c(O[C@@H]2O[C@H](CO)[C@@H](O)[C@H](O)[C@H]2O)c(C(=O)c2ccccc2)c1O | > 100 | 14 | 46.37 | 23.73 | 32.97 (≈ 78.4 µM) | 11.54 | > 10 | > 10 | > 10
O=c1c(O[C@@H]2OC[C@H](O)[C@H](O)[C@H]2O)c(-c2ccc(O)c(O)c2)oc2cc(O)cc(O)c12 [GUAJAVERIN] | 13.43 (≈ 30.9 µM) | 175.59 | 346.45 | 220.51 | 6.7 (≈ 15.4 µM) | 57.21 | > 10 | > 10 | > 10
O=c1c(O[C@@H]2O[C@@H](CO)[C@H](O)[C@H]2O)c(-c2ccc(O)c(O)c2)oc2cc(O)cc(O)c12 [AVICULARIN] | 16.13 (≈ 37.1 µM) | 269 | 324.58 | 291.63 | 6.9 (≈ 15.9 µM) | 123.88 | > 10 | > 10 | > 10
COc1cccc2c1C(=O)c1c(O)c3c(c(O)c1C2=O)C[C@@](O)(C(=O)CO)C[C@@H]3O[C@H]1C[C@H](N)[C@H](O)[C@H](C)O1 [DOXORUBICIN] |  |  |  |  |  |  | 2.68 (≈ 4.94 µM) | 1.36 (≈ 2.5 µM) | 3.12 (≈ 5.74 µM)

Further lines, with some results ahead:

IC50 [1] [µg/mL] | Activity [2] [µmol/L] | Activity [3] [µmol/L] | Activity [4] [µmol/L] | IC50 [6] [µg/mL] | Activity [7] [µmol/L] | SMILES | IC50 (HeLa) [µg/mL] | IC50 [5] [µg/mL] | IC50 (A549) [µg/mL]
13.1 (≈ 31.5 µM) | 152.02 | 413.94 | 263.31 | 5.93 (≈ 14.2 µM) | 70.64 | C/C(=C/O[C@@H]1O[C@H](COC(=O)c2cc(O)c(O)c(O)c2)[C@@H](O)[C@H](O)[C@H]1O)C(=O)O | 3.51 (≈ 8.44 µM) | 3.73 (≈ 8.96 µM) | 7.01 (≈ 16.8 µM)
37.93 (≈ 69.7 µM) | 53.29 | 174.6 | 131.03 | 13.63 (≈ 25 µM) | 18.46 | O=C(OC[C@H]1O[C@@H](Oc2cc(O)c(C(=O)c3ccccc3)c(O)c2)[C@H](O)[C@@H](O)[C@@H]1O)c1cc(O)c(O)c(O)c1 | > 10 | > 10 | > 10
> 100 |  |  |  | 29.27 (≈ 72 µM) |  | Cc1c(O)cc(O[C@@H]2O[C@H](CO)[C@@H](O)[C@H](O)[C@H]2O)c(C(=O)c2ccccc2)c1O | > 10 | > 10 | > 10
28.33 (≈ 49.5 µM) | 90.63 | 341.94 | 185.03 | 8.3 (≈ 14.5 µM) | 48.3 | Cc1c(O)c(C(=O)c2ccccc2)c(O)c(C)c1O[C@@H]1O[C@H](COC(=O)c2cc(O)c(O)c(O)c2)[C@@H](O)[C@H](O)[C@H]1O | > 10 | > 10 | > 10
13.07 (≈ 26 µM) | 143.76 | 386.38 | 250.53 | 5.47 (≈ 10.9 µM) | 91.28 | O=C(OC[C@H]1O[C@@H](Oc2cc(-c3ccccc3)oc(=O)c2)[C@H](O)[C@@H](O)[C@@H]1O)c1cc(O)c(O)c(O)c1 | 3.25 (≈ 6.46 µM) | 4.28 (≈ 8.51 µM) | 7.29 (≈ 14.5 µM)
